ChEMBL document CHEMBL5506025, “Discovery of LLC0424 as a Potent and Selective in Vivo NSD2 PROTAC Degrader” (J Med Chem, 2024)
Activity calls are given as the source filed them. No cut-off for these calls is given here.

Legend:
[1] = target: T1, Protein cereblon/Histone-lysine N-methyltransferase NSD2 (Homo sapiens) (UniProt O96028+Q96SW2); assay: PROTAC activity at CRBN/NSD2 in human RPMI 8402 cells assessed as induction of NSD2 degradation at 2 uM pretreated with bortezomib for 2 hrs followed by compound addition and measured after 6 to 12 hrs by Western blot analysis; assay type: cell-based; conditions: time 6-12 hrs
[2] = target: T1, Protein cereblon/Histone-lysine N-methyltransferase NSD2 (Homo sapiens); assay: PROTAC activity at CRBN/NSD2 in human RPMI 8402 cells assessed as induction of NSD2 degradation at 2 uM pretreated with VL-285 for 2 hrs followed by compound addition and measured after 6 to 12 hrs by Western blot analysis; assay type: cell-based; conditions: time 6-12 hrs
[3] = target: T1, Protein cereblon/Histone-lysine N-methyltransferase NSD2 (Homo sapiens); assay: In vivo PROTAC activity at CRBN/NSD2 in SCID mouse xenografted with human 22Rv1 cells assessed as downregulation of NSD2 level at 60 mg/kg, ip for 5 days by immunohistochemical analysis; assay type: functional, organism-based; conditions: CWR22R, time 5.0 day
[4] = target: T1, Protein cereblon/Histone-lysine N-methyltransferase NSD2 (Homo sapiens); assay: PROTAC activity at CRBN/NSD2 in human SEM cells assessed as downregulation of H3K36Me2 level at 2 uM measured after 8 hrs hrs by immunoblot analysis; assay type: cell-based
[5] = target: Protein cereblon/Eukaryotic peptide chain release factor GTP-binding subunit ERF3A (Homo sapiens) (UniProt Q96SW2+P15170); assay: PROTAC activity at CRBN/GSPT1 in human VCaP cells assessed as decrease in GSPT1 level at 2 uM measured upto 8 hrs by immunoblot analysis; assay type: cell-based
SEM cells [6] = assay: Cytotoxicity against human SEM cells harbouring NSD2 assessed as inhibition of cell growth at 2 uM measured after 9 days by Celltiter-glo assay; assay type: functional, cell-based; conditions: time 9.0 day
[7] = target: T1, Protein cereblon/Histone-lysine N-methyltransferase NSD2 (Homo sapiens); assay: In vivo PROTAC activity at CRBN/NSD2 in SCID mouse xenografted with human SEM cells assessed as downregulation of NSD2 level at 60 mg/kg, iv for 5 days by immunohistochemical analysis; assay type: functional, organism-based; conditions: time 5.0 day
SEM cells [8] = assay: Downregulation of CD9 gene expression in human SEM cells measured after 14 days by RNA sequencing assay; assay type: functional, cell-based; conditions: time 14.0 day
[9] = target: T1, Protein cereblon/Histone-lysine N-methyltransferase NSD2 (Homo sapiens); assay: In vivo PROTAC activity at CRBN/NSD2 in SCID mouse xenografted with human SEM cells assessed as downregulation of NSD2 level at 60 mg/kg, ip for 5 days by immunohistochemical analysis; assay type: functional, organism-based; conditions: time 5.0 day
[10] = target: T1, Protein cereblon/Histone-lysine N-methyltransferase NSD2 (Homo sapiens); assay: PROTAC activity at CRBN/NSD2 in human RPMI 8402 cells assessed as induction of NSD2 degradation at 2 uM pretreated with UNC6934 for 2 hrs followed by compound addition and measured after 6 to 12 hrs by Western blot analysis; assay type: cell-based; conditions: time 6-12 hrs
[11] = target: Cereblon/Ikaros (Homo sapiens) (UniProt Q96SW2+Q13422); assay: PROTAC activity at CRBN/IKZF1 in human SEM cells assessed as decrease in IKZF1 level at 2 uM measured upto 8 hrs by immunoblot analysis; assay type: cell-based
[12] = target: T1, Protein cereblon/Histone-lysine N-methyltransferase NSD2 (Homo sapiens); assay: PROTAC activity at CRBN/NSD2 in human RPMI 8402 cells assessed as induction of NSD2 degradation at 2 uM measured after 4 to 8 hrs hrs by immunoblot analysis; assay type: cell-based; conditions: time 4-8 hrs
[13] = target: Protein cereblon/Zinc finger protein Aiolos (Homo sapiens) (UniProt Q96SW2+Q9UKT9); assay: PROTAC activity at CRBN/IKZF3 in human SEM cells assessed as decrease in IKZF3 level at 2 uM measured upto 8 hrs by immunoblot analysis; assay type: cell-based
[14] = target: T1, Protein cereblon/Histone-lysine N-methyltransferase NSD2 (Homo sapiens); assay: PROTAC activity at CRBN/NSD2 in human RPMI 8402 cells assessed as downregulation of H3K36Me2 level at 2 uM measured upto 24 hrs hrs by immunoblot analysis; assay type: cell-based
SEM cells [15] = assay: Cytotoxicity against human SEM cells assessed as inhibition of cell growth at 2 uM measured after 9 days by Celltiter-glo assay; assay type: functional, cell-based; conditions: time 9.0 day

T1 sequence (O96028 whole entry, looked up): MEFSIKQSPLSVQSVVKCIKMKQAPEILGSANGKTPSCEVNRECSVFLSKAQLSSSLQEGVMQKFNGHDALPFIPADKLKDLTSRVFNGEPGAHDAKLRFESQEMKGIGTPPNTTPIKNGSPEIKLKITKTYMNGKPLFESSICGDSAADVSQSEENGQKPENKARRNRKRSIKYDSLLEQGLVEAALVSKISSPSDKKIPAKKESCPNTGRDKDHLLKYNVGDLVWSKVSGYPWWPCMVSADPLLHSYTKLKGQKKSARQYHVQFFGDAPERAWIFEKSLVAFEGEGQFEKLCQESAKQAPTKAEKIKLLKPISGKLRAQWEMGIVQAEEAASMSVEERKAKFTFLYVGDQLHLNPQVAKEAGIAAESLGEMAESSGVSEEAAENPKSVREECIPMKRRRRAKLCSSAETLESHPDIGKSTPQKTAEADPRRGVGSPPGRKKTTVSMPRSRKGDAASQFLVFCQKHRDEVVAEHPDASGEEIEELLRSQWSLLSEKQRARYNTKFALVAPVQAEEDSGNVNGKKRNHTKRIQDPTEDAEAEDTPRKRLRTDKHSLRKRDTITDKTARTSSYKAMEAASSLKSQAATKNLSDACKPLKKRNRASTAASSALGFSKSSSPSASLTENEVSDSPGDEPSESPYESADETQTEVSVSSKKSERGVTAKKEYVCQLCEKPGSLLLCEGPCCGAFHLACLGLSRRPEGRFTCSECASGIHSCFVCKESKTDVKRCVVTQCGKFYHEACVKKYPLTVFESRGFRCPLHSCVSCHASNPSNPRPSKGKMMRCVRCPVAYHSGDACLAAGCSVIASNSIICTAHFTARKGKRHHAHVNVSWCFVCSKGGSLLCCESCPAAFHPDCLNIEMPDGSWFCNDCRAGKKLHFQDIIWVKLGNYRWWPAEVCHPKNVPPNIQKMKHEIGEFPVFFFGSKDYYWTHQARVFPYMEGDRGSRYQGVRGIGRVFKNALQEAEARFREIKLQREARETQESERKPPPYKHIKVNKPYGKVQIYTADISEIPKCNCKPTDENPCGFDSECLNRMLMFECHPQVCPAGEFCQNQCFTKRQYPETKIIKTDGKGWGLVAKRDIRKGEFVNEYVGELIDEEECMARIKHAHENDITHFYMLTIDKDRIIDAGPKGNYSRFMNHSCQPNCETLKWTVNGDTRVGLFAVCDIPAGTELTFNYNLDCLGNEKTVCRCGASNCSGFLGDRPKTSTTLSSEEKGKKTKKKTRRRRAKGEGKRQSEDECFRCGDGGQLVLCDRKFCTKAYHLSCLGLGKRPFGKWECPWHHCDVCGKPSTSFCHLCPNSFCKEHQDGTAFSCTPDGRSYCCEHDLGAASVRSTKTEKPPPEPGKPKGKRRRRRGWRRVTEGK
T1 sequence (Q96SW2 whole entry, looked up): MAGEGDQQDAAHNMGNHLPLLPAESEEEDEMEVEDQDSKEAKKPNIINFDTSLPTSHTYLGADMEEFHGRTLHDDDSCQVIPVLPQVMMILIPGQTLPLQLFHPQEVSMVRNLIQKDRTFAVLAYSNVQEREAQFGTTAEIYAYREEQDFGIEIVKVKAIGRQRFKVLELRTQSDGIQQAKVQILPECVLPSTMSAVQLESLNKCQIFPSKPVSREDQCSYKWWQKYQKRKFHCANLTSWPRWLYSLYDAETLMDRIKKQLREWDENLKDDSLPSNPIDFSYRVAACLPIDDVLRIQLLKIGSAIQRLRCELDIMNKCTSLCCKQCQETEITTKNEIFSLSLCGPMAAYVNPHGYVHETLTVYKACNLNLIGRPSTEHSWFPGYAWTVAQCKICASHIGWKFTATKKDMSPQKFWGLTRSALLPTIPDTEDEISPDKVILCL
Chain of Protein cereblon/Zinc finger protein Aiolos (Homo sapiens) (Q96SW2 whole entry, looked up): as above
Chain of Protein cereblon/Zinc finger protein Aiolos (Homo sapiens) (Q9UKT9 whole entry, looked up): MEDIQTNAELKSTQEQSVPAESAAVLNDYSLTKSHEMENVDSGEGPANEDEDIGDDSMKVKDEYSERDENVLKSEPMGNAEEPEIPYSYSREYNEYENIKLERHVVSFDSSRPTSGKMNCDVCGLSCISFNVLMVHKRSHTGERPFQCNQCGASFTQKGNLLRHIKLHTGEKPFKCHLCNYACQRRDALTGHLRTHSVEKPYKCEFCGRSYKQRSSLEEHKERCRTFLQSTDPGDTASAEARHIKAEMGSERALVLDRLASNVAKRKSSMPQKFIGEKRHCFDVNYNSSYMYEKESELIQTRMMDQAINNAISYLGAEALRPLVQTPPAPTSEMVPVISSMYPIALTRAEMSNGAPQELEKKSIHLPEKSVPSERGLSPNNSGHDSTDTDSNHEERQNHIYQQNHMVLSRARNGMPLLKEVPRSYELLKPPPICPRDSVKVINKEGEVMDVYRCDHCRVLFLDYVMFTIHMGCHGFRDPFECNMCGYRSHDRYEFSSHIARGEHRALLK
Chain of Protein cereblon/Eukaryotic peptide chain release factor GTP-binding subunit ERF3A (Homo sapiens) (P15170 whole entry, looked up): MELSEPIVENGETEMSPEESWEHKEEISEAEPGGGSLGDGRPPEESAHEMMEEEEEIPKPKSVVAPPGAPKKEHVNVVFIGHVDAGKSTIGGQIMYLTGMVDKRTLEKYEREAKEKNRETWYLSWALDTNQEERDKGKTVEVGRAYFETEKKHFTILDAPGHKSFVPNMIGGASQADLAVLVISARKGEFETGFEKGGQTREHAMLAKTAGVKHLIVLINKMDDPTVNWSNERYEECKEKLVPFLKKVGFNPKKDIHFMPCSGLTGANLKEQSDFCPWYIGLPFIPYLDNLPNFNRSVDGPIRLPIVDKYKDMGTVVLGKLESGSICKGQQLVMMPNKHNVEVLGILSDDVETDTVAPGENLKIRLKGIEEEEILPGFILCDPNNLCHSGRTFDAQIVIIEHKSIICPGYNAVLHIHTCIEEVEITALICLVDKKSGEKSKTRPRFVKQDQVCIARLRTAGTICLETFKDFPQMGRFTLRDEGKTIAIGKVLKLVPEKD
Chain of Protein cereblon/Eukaryotic peptide chain release factor GTP-binding subunit ERF3A (Homo sapiens) (Q96SW2 whole entry, looked up): as the sequence (Q96SW2 whole entry, looked up) above

Activity [1]: inactive | Activity [2]: Active | Activity [3]: Active | Activity [4]: Active | Activity [5]: inactive | Activity [7]: Active | Activity [9]: Active | Activity [10]: inactive | Activity [11]: inactive | Activity [12]: Active | Activity [13]: inactive | Activity [14]: Active
Compound: O=C1CCC(N2C(=O)c3ccc(N4CCC(NC(=O)c5ccc(NC(=O)c6ccc(CN(C(=O)c7ccc8c(c7)OCC(=O)N8)C7CC7)cc6)cc5)CC4)cc3C2=O)C(=O)N1 (stereo not given)
Activity (SEM cells [6]): Active | Activity (SEM cells [8]): Active | Activity (SEM cells [15]): Active
